{"source": "ChEMBL document CHEMBL5214968", "about": "“Recent Scaffold Hopping Applications in Central Nervous System Drug Discovery” (J Med Chem, 2022)", "key": {"Cannabinoid receptor 1": {"target": "Cannabinoid receptor 1 (Homo sapiens, UniProt P21554)", "sequence (P21554 whole entry)": "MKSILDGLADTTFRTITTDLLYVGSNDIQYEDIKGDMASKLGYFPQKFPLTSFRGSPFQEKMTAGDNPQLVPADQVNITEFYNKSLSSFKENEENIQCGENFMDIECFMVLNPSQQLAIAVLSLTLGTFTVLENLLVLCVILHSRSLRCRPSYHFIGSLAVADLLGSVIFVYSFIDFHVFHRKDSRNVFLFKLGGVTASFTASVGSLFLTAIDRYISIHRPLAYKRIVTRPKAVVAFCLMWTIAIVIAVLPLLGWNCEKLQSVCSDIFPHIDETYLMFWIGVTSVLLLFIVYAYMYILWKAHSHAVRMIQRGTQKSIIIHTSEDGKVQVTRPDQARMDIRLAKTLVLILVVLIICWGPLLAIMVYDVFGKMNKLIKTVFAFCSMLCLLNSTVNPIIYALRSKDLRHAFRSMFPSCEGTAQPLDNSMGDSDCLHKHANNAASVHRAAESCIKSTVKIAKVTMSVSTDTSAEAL", "assay": "Agonist activity at human CB1 receptor expressed in mouse AtT20 cells by FLIPR assay", "type": "functional, cell-based"}, "Cannabinoid receptor 2": {"target": "Cannabinoid receptor 2 (Homo sapiens, UniProt P34972)", "sequence (P34972 whole entry)": "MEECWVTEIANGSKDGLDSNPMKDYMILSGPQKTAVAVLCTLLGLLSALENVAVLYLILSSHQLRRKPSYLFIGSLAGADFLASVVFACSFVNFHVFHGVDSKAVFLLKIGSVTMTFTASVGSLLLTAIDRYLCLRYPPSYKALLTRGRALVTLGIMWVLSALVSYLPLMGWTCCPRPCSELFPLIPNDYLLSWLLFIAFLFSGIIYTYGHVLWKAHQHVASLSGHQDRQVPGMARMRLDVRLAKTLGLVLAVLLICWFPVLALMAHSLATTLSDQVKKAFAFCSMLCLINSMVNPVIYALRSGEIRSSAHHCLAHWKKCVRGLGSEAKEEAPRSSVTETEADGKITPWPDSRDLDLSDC", "assay": "Agonist activity at human CB2 receptor expressed in mouse AtT20 cells by FLIPR assay", "type": "functional, cell-based"}, "[1]": {"target": "T1, Cyclin-G-associated kinase (Homo sapiens, UniProt O14976)", "T1 sequence (O14976 whole entry)": "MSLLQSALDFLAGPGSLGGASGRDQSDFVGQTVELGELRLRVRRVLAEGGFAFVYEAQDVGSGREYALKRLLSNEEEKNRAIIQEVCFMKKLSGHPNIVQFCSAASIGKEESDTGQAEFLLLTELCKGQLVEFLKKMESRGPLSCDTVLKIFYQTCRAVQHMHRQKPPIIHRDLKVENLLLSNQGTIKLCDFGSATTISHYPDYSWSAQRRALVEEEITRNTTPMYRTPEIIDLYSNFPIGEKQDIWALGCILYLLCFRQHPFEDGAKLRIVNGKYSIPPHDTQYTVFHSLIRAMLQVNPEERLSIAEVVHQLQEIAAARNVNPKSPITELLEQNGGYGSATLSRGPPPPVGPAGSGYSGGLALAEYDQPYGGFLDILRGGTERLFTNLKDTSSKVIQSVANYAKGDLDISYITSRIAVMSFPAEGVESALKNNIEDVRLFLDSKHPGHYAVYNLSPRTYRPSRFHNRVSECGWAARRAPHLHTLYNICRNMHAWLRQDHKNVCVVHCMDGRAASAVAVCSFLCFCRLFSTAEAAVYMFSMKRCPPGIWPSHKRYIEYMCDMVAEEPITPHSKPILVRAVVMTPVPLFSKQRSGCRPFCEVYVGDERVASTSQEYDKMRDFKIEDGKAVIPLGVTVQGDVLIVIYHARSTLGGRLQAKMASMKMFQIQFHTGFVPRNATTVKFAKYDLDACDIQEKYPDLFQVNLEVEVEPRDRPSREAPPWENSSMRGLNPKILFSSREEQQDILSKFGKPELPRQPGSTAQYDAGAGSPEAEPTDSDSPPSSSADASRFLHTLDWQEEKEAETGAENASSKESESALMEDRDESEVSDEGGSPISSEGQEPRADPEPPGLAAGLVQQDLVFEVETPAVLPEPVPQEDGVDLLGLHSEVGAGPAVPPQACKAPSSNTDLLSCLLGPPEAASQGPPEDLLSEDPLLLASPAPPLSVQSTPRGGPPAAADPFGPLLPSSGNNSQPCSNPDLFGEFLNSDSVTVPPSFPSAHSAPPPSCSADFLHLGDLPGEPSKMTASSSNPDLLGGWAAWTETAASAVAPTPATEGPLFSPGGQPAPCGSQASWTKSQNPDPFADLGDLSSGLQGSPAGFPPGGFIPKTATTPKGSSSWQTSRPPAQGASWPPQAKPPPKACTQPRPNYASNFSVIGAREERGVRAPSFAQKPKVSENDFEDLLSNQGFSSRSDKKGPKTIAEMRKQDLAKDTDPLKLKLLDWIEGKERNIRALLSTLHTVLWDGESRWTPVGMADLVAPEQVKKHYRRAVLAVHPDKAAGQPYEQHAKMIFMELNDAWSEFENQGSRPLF", "assay": "Binding affinity to GAK (unknown origin) by KINOMEscan analysis"}, "[2]": {"target": "Microtubule-associated protein tau (Homo sapiens) (UniProt P10636)", "sequence (P10636 whole entry)": "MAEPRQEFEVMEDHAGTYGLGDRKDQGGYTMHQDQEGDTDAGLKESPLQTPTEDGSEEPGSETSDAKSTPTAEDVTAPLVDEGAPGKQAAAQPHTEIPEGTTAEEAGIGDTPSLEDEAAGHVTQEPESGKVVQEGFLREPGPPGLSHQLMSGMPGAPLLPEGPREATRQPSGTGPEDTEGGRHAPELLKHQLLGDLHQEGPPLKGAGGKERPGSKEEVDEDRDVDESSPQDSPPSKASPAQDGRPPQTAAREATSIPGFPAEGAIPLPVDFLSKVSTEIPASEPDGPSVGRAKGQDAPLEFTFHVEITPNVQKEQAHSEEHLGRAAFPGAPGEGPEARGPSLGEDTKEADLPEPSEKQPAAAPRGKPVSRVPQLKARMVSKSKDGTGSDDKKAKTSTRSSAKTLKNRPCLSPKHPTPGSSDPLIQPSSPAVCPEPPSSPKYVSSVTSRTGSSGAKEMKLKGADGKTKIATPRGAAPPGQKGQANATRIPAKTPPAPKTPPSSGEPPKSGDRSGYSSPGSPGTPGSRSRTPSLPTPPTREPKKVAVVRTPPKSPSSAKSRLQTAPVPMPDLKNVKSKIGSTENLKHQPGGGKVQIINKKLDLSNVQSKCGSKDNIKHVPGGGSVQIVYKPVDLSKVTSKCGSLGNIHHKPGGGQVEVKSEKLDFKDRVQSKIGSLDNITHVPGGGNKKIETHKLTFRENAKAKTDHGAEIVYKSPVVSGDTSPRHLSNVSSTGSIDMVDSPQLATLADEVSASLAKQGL", "assay": "Inhibition of heparin-induced tau protein (unknown origin) aggregation at 100 uM incubated for 3 days by Thioflavin T fluorescence assay", "details": "time 3.0 day"}, "Mu-type opioid receptor": {"target": "Mu-type opioid receptor (Homo sapiens, UniProt P35372)", "sequence (P35372 whole entry)": "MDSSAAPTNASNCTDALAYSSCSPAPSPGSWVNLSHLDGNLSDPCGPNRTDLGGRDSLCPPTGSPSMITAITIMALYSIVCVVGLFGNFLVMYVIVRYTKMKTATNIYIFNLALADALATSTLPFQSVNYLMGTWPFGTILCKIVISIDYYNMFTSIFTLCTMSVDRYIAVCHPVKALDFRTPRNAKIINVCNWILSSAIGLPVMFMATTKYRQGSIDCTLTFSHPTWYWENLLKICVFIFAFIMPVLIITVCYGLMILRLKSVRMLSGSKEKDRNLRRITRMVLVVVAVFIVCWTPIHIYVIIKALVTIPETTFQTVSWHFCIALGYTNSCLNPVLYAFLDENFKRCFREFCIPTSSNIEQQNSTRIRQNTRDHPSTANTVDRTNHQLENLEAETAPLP", "assay": "Displacement of [3H]DAMGO from human cloned mu-opioid receptor by radioligand binding assay"}}, "note": "pEC50, pKd, pKi: −log10 of the molar value."}
{"smiles": "CC(C)(NC(=O)c1nn(CCCCCF)c2ccccc12)c1ccccc1", "values": [{"measurement": "pEC50", "setting": "Cannabinoid receptor 1", "result": 9.37}, {"measurement": "pEC50", "setting": "Cannabinoid receptor 2", "result": 7.95}]}
{"smiles": "COc1ccc(-c2cnc3c(c2)nnn3-c2ccccc2)cc1OC", "values": [{"measurement": "pKd", "setting": "[1]", "result": "< 4.52"}]}
{"smiles": "O=C(NC1CC1)c1nn(-c2ccc(F)cc2)c(=O)c2cscc12", "values": [{"measurement": "inhibition", "setting": "[2]", "result": 51, "unit": "%"}]}
{"smiles": "CC(C)(NC(=O)c1cn(CCCCCF)c2ncccc12)c1ccccc1", "values": [{"measurement": "pEC50", "setting": "Cannabinoid receptor 1", "result": 8.33}, {"measurement": "pEC50", "setting": "Cannabinoid receptor 2", "result": 7.95}]}
{"smiles": "O=C(NC1CC1)/C(=N\\O)c1cscc1C(=O)NC12CC3CC(CC(C3)C1)C2", "values": [{"measurement": "inhibition", "setting": "[2]", "result": 30, "unit": "%"}]}
{"smiles": "CC(C)(NC(=O)c1cn(CCCCCF)c2ccccc12)c1ccccc1", "values": [{"measurement": "pEC50", "setting": "Cannabinoid receptor 1", "result": 8.55}, {"measurement": "pEC50", "setting": "Cannabinoid receptor 2", "result": 7.40}]}
{"smiles": "C=CCO/N=C(\\C(=O)NC1CC1)c1cscc1C(=O)Nc1ccc(F)cc1", "values": [{"measurement": "inhibition", "setting": "[2]", "result": 33, "unit": "%"}]}
{"smiles": "O=C(NCCc1ccccc1)[C@H]1CCN(C(=O)Cc2ccc(O)cc2)[C@@H]1C(=O)NCCc1c[nH]c2ccccc12", "values": [{"measurement": "pKi", "setting": "Mu-type opioid receptor", "result": 6.09}]}
